From patent publication US5681823A, “P^1, P^4 -dithio-P^2 -P^3 -monochloromethylene 5', 5'"-diadenosine P^1, P^4 -tetraphosphate as antithrombotic agent” (PRP Inc., priority 1996, dated 1997)
Entries after “also recorded” stand apart in the source; their conditions may differ. Like-named read-outs stand apart in the source and are kept apart here.

Legend:
[1] = tested on: ADP-induced platelet aggregation; test: ADP-induced platelet aggregation in platelet-rich plasma (turbidimetric method of Born, aggregometer); type: cell-based, human; details: for IC50: ADP-induced aggregation, PRP, mean of three (*) or two determinations
Experimental: (§1) Unless otherwise provided below, the experimental procedures were performed according to the procedures provided in U.S. Pat. No. 5,049.550 (Zamecnik '550), the entire contents of which are incorporated herein by reference. Some alternative procedures (e.g., release reaction, PF3 assays) and a number of additional studies also are provided (e.g., cytoplasmic calcium mobilization, fibrinogen binding site, agonists other than ADP, platelet cAMP and distribution of CHCl-AP4 A into blood components). Blood was collected in a 0.1 volume of 3.8% sodium citrate from healthy human volunteers who had abstained from antiplatelet agents for at least 10 days. Platelet rich plasma (PRP) was separated by a gradual centrifugation and adjusted to 3.3×10^8 platelets per ml plasma. PRP has been utilized in the Examples unless otherwise stated.
An initial screening was performed for inhibitory effects of several agents (including, e.g., thio-CHCl-AP4 A and CHCl-AP4 A as reference agent)) on platelet aggregation induced by ADP. Platelet aggregation was measured with platelet-rich plasma (PKP) by the turbidimetric method of Born (J. Physiol. 162:67, 1962) in an aggregometer (Chrono-log, Model 530 VS). Platelet aggregation induced by 5 μM ADP in the absence or presence of 5 μM agents was examined. […] The IC50 value of the CHCl-AP4 A (reference agent) was consistent with the value reported previously (P. Zamecnik et al., Proc. Nat'l. Acad. Sci. USA 89:2370-2373 (1992)).

[2] = tested on: fibrinogen receptor (GPIIb/IIIa); test: Fibrinogen binding sites on ADP-activated platelets (FITC-anti-fgn, flow cytometer); type: cell-based, human; details: for % binding (fibrinogen bound on ADP-activated platelets): 5 μM ADP
Experimental: Platelet responses to the agonists include in addition to aggregation a) release reaction, b) fibrinogen receptor silos (GPIIb/IIIa) and, c) platelet factor 3 activation. The effects of thio-CHCl-AP4 A and the reference agent (CHCl-AP4 A, compound E10 of Zamecnik '550) were tested on each of these responses.
Platelet surface receptors for fibrinogen are known to be increased by activation. The effects of thio-CHCl-AP4 A and CHCl-AP4 A on fibrinogen binding sites of activated platelets were assayed by means of Fluorescein isothiocyanate conjugated antifibrinogen antibody (FITC-anti-fgn) techniques in a flow cytometer (FACS, Becton-Dickinson). PRP was used at 1:20 final dilution. Platelets were activated by ADP in the presence or absence of the agents at 22° C. for 5 min. After incubation of activated platelets with FITC-Anti-Fgn at 22° C. for 10 min., 0.5 ml of 0.2% formyl saline (0.2% formaldehyde in 0.9% NaCl) was added to inhibit further activation. Samples included platelets that were a) unstimulated; b) stimulated with 5 μM ADP; c) exposed to agents (CHCl-AP4 A or thio-CHCl-AP4 A) for 5 minutes before ADP stimulation.

[3] = tested on: Cytoplasmic Calcium Ion (Ca^++) Mobilization in platelets; test: Cytoplasmic calcium ion mobilization in platelets (Indo-1, flow cytometer); type: cell-based, human; details: 6.7 μM ADP
Experimental: as §1
An increment of cytoplasmic Ca^++ in the platelets represents an activated state. Indo-1 acetomethyl ester (Indo-1) commonly has been utilized as the reagent to detect intracellular free Ca^++. Indo-1 reacts with Ca^++ and produces fluorescence which can be monitored in a dual wavelength (408/485) flow cytometer (Coulter EPIC Systems). Platelets were incubated with Indo-1 at 37° C. for 45 min. Excess Indo-1 in the medium was removed by gel-filtration method. Indo-1-loaded platelets were then activated by 6.7 μM ADP in the absence or presence of thio-CHCl-AP4 A (3.3 μM) or CHCl-AP4 A (6.7 μM). Fluorescence intensity of the platelets was monitored and plotted against platelet number. The histograms generated from the plots were analyzed. Unstimulated platelets registered fluorescence intensity (FI) between 42 and 250 with a peak at 133 (base line control).

[4] = Molecular stability in whole blood (HPLC of blood extracts); type: in vitro ADME, human; details: for Main Peak / Total / X2 (second peak) / X1 (second peak): 250 μM agent, mean of two
Experimental: To test the molecular stability of the agents, blood was incubated with each agent at […] for 4 hours. Samplings at the indicated incubation times were extracted and CHC -AP4 A or thio-CHCl-AP4 A were assayed in an HPLC (Waters 600E pump and controller) with quartenary amine anion exchange column (Whatman Partisil 10) and analysed (Beckman System Gold). The retention times for CHCl-AP4 A and thio-CHCl-AP4 A were 3.39 and 5.95, respectively. Peak areas were integrated and used to construct a standard curve for a concentration range (1, 2, 4, 6, 8 and 10 μM). Both CHCl-AP4 A and thio-CHCl-AP4 A were pure, as observed by a single peak on HPLC, and by a linear relationship between the concentration of the agent and HPLC peak areas. Normal human blood anticoagulated with 0.38% sodium citrate was incubated in the presence of250 μM CHCl-AP4 A or thio-CHCl-AP4 A at […] for 4 hours. Blood samples were extracted with 3% perchloric acid and neutralized with K2 CO3. The extracts were kept at -80° C. until an assay using an HPLC. The values in Table 9 represent a mean of two experiments and are expressed in nmol/ml blood. […] An estimated quantity of CHCl-AP4 A major peak indicated a slow degradation showing a reduction of 30% after 4 hours incubation. At least 80% of degradation product, possibly chloromethylene monoadenosine triphosphate (AppCp) is associated with the second peak (X1). […] The second peak of the blood extract with thio-CHCl-AP4 A may be an isomer (X2), e.g., monothio compound (Aps pCppA or AppCpps A). It was not detected by HPLC of the pure compound, but registered a small portion (<10%) in the blood extraction at time 0 and about 20% of the major peak thereafter.

[5] = tested on: ADP-induced platelet aggregation; thrombus formation; details: in words; cited from earlier work

SMILES: Nc1ncnc2c1ncn2[C@@H]1O[C@H](COP(O)(=S)OP(=O)(O)C(Cl)P(=O)(O)OP(O)(=S)OC[C@H]2O[C@@H](n3cnc4c(N)ncnc43)[C@H](O)[C@@H]2O)[C@@H](O)[C@H]1O (stereo partly shown) [Thio-CHCl-AP4 A, P^1, P^4 -dithio -P^2 -P^3 monochloromethylene 5', 5'" diadenosine P^1, P^4 -tetraphosphate]
- IC50 [1]: 810 nM
- in vitro platelet aggregation inhibitory activity relative to AP4 A and analogs ([1]; compared to AP4 A, known analogs, non-thio counterpart, in words, listed as Aps pCHClpps A): nearly an order of magnitude greater than the inhibitory activity of naturally-occurring AP4 A; also recorded: significantly greater than the activities of known AP4 A analogs; also recorded: significantly greater platelet aggregation inhibitory activity than that of its corresponding non-thio counterpart
- % binding (fibrinogen bound on ADP-activated platelets) ([2]; 2.5 μM agent): 9.9 % binding
- % binding (fibrinogen bound on ADP-activated platelets) ([2]; 5.0 μM agent): 5.3 % binding
- inhibition of fibrinogen bound on ADP-activated platelets ([2]; compared to CHCl-AP4 A, in words): inhibited preferentially
- effect on ADP-induced Ca^++ mobilization ([3]; 3.3 μM thio-CHCl-AP4 A): blocked completely
- Main Peak ([4]; 0 min): 157.7 nmol/ml blood
- Total ([4]; 0 min): 172.0 nmol/ml blood
- X2 (second peak) ([4]; 0 min): 14.3 nmol/ml blood
- Main Peak ([4]; 60 min): 172.3 nmol/ml blood
- Total ([4]; 60 min): 205.9 nmol/ml blood
- X2 (second peak) ([4]; 60 min): 33.6 nmol/ml blood
- Main Peak ([4]; 120 min): 180.0 nmol/ml blood
- Total ([4]; 120 min): 211.4 nmol/ml blood
- X2 (second peak) ([4]; 120 min): 31.4 nmol/ml blood
- Main Peak ([4]; 240 min): 173.7 nmol/ml blood
- Total ([4]; 240 min): 202.0 nmol/ml blood
- X2 (second peak) ([4]; 240 min): 38.3 nmol/ml blood
- second peak (X2), % of the major peak ([4]; after time 0): about 20 % of the major peak
- stability in blood ([4]; at least 4 hours at 37° C., in words): very stable in blood for at least 4 hours at 37 °C
- recovery at 2 h, 250 µM ([4]; human, blood, 120 minutes, read-out: Total extraction efficiency): 85%
- recovery at 1 h, 250 µM ([4]; human, blood, samples after 60 minutes, read-out: Extraction efficiency): 81 to 85%
- recovery at 0 h, 250 µM ([4]; human, blood, time 0, read-out: Extraction efficiency): 69%
- second peak (X2) portion in the blood extraction ([4]; time 0): < 10%

SMILES: Nc1ncnc2c1ncn2[C@@H]1O[C@H](COP(=O)(O)OP(=O)(O)C(Cl)P(=O)(O)OP(=O)(O)OC[C@H]2O[C@@H](n3cnc4c(N)ncnc43)[C@H](O)[C@@H]2O)[C@@H](O)[C@H]1O (stereo partly shown) [CHCl-AP4 A]
- IC50 [1]: 3280 nM
- % binding (fibrinogen bound on ADP-activated platelets) ([2]; 2.5 μM agent): 70.9 % binding
- % binding (fibrinogen bound on ADP-activated platelets) ([2]; 5.0 μM agent): 41.3 % binding
- % binding (fibrinogen bound on ADP-activated platelets) ([2]; 7.5 μM agent): 36.1 % binding
- % binding (fibrinogen bound on ADP-activated platelets) ([2]; 10 μM agent): 23.8 % binding
- effect on ADP-induced Ca^++ mobilization ([3]; 6.7 μM CHCl-AP4 A): blocked completely
- Main Peak ([4]; 0 min): 249.2 nmol/ml blood
- Total ([4]; 0 min): 249.2 nmol/ml blood
- X1 (second peak) ([4]; 0 min): trace
- Main Peak ([4]; 60 min): 249.0 nmol/ml blood
- Total ([4]; 60 min): 274.8 nmol/ml blood
- X1 (second peak) ([4]; 60 min): 25.8 nmol/ml blood
- Main Peak ([4]; 120 min): 222.0 nmol/ml blood
- Total ([4]; 120 min): 258.6 nmol/ml blood
- X1 (second peak) ([4]; 120 min): 36.6 nmol/ml blood
- Main Peak ([4]; 240 min): 173.2 nmol/ml blood
- Total ([4]; 240 min): 236.3 nmol/ml blood
- X1 (second peak) ([4]; 240 min): 63.3 nmol/ml blood
- recovery at 1 h, 250 µM ([4]; human, blood, 60 minutes, read-out: Total extraction efficiency): 110%
- metabolised at 4 h, 250 µM ([4]; human, blood, after 4 hours incubation, read-out: reduction of major peak (slow degradation)): 30%
- degradation product associated with the second peak (X1) ([4]; whole blood): At least 80%
- effect on thrombus formation on administration to a mammal [5]: inhibit thrombus formation
